Reference: patent publication US11236120B2, “Azithromycin derivatives with epithelial barrier enhancement properties” (EpiEndo Pharmaceuticals ehf, priority 2015, dated 2022)
Values after ≈ are worked out from the molar mass of the structure shown. “Also recorded” adds a separate entry of the source.

What was measured:
Mycobacterium avium = assay: Assay 2: STC colorimetric microplate assay, M. avium; assay type: cell-based
[1] = tested on: epithelial cells in vitro ALI culture; conditions: cited from earlier work
[2] = Solubility in 10 mM phosphate buffer (pH 7.4); assay type: physicochemical; conditions: pH 7.4, aqueous buffer, kinetic from dmso stock, 60 minutes at room temperature, filtered, read-out: MTS Solubility in Buffer (pH 7.4)
Procedure: Solubility in 10 mM Phosphate Buffer (pH 7.4)
The solubility sample testing of the compounds was performed by in phosphate buffer at pH 7.4 and using HPLC-MS detection. A stock solution of […] in DMSO was prepared for each compound. For the solubility test sample, 100 μL of the stock solution was diluted with 3.9 mL of a 10 mM phosphate buffer at […] to a final concentration of […]. The buffer solution was left to stand for 60 minutes at room temperature and then filtered. The filtrate was analyzed against two calibration points of the same analyte prepared at […] using HPLC-MS. These calibration points were prepared from the same stock solution as the solubility sample by diluting it with DMSO:H2O (1:1) 1:40 and then again 1:10. The chromatographic signal area of the analyte in the solubility sample was then compared to the chromatographic signal area of the two calibration samples.
The chromatographic separation was performed on a Waters HPLC-MS system using a 50×2.1 mm×Bridge C18 column and a gradient elution of Water with 0.1% formic acid and acetonitrile with 0.1% formic acid. The analytes were analyzed in positive electro-spray mode using the (M+H)^+ in single ion recording.

[3] = tested on: barrier integrity in the lungs of mice under sulphur dioxide insult; assay: Barrier integrity enhancement in the lung: HSA leakage into BAL after sulphur dioxide insult; assay type: in vivo
Procedure: The effect of compounds of the invention on maintenance of barrier integrity in the lungs of mice under sulphur dioxide insult was investigated.
1. 15 female mice were randomised into 3 groups of 5 mice. The three groups were: • a) Control group • b) Azithromycin treatment group • c) Investigational compound treatment group
2. The mice were pre-treated for three days with: • a) Placebo (Phosphate buffered saline—PBS) given at a dose of 10 mg/kg in an intravenous injection of 100 μl three times per week. • b) Azithromycin: given at a dose of 10 mg/kg in an intravenous injection of 100 μl three times per week. • c) The compound of Example 2: given at a dose of 10 mg/kg in an intravenous injection of 100 μl three times per week.
3. One mouse in each group was set to one side as a control. Four mice were then exposed to sulphur dioxide gas at a concentration of 200 ppm in air for a period of 60 minutes. The mice were in a cage that was inserted into a 45 L treatment box with a removable lid, a gas feed line and a gas exhaust vent. […] The gas was premixed from bottled air and bottled 200 ppm SO2 in a first box and then fed into the treatment box. The level of SO2 being fed into the treatment box can be varied by adjusting the relative flow of air and SO2 from the two source cylinders. As the sulphur dioxide concentration in this experiment was 200 ppm, it was used neat, with no additional air being mixed with it. The mice had access to food and water for the duration of the treatment.
4. 24 hours after the end of the treatment, 1 mg of human serum albumin (HSA) in 100 μl saline was injected into the tail vein of each mouse, and fluorescent dextrans (FDs) were injected into the airways. The mice were then kept sedated for 90 minutes.
5. After 90 minutes, the mice were sacrificed via exsanguination. Plasma and bronchoalveolar lavage (BAL) were collected and the lungs were processed for paraffin embedding.
6. The level of HSA in the BAL was quantified by ELISA. The ELISA test used was the one commercially available from abcam (Human Serum Albumin kit ab179887). In line with the kit manufacturer's instructions, absorbance at […] was measured. Fluorescent dextrans are quantified using a fluorescent plate reader.
The level of HSA that leaks into the lungs, as found in the BAL, is a measure of the integrity of the lung epithelial barrier.
In the placebo group, there were experimental difficulties with two of the four mice; in the Azithromycin group, there were experimental difficulties with one of the four mice; and in the investigational compound group, there were experimental difficulties with two of the four mice. Therefore, results were obtained from two mice in each of the placebo and investigational compound groups, and from three mice in the Azithromycin group.

[4] = tested on: Bacillus megaterium (BM-11); assay: Assay 1: antimicrobial broth dilution on microtiter plates, Bacillus megaterium; assay type: cell-based; conditions: Priestia megaterium
Procedure: (§1) The antimicrobial activity of each Example compound was investigated. The Minimal Inhibitory Concentration (MIC—the minimal dose required to inhibit bacterial growth) and the Minimal Bactericidal Concentration (MBC—the minimal dose required to kill bacteria) were measured for each compound for Streptococcus pneumoniae (ATCC49619), Staphylococcus aureus (ATCC29213), Bacillus megaterium (BM-11) and Escherichia coli (D-21) using an antimicrobial broth dilution method on microtiter plates. The Minimal Inhibitory Concentration (MIC) was also measured for each example compound and azithromycin with Mycobacterium avium complex (MAC). […]
(§2) The Minimal Inhibitory Concentration (MIC—the minimal dose required to inhibit bacterial growth) and the Minimal Bactericidal Concentration (MBC—the minimal dose required to kill bacteria) were measured for each compound for Streptococcus pneumoniae (ATCC49619), Staphylococcus aureus (ATCC29213), Bacillus megaterium (BM-11) and Escherichia coli (D-21) using an antimicrobial broth dilution method on 96 well microtiter plates. […]
(§3) After addition of the bacterial solution, the plates were incubated at 35° C. for 18 h. The bacterial growth of each well was then recorded and then the Minimal Inhibitory Concentration (MIC) and Minimal Bactericidal Concentration ([…]) were determined.

[5] = tested on: Staphylococcus aureus (ATCC29213); assay: Assay 1: antimicrobial broth dilution on microtiter plates, Staphylococcus aureus; assay type: cell-based; conditions: S. aureus (ATCC29213)
Procedure: as §1, §2, §3

[6] = tested on: Mycobacterium intracellulare; assay: Assay 2: STC colorimetric microplate assay, M. intracellulare; assay type: cell-based

In the case of `CC[C@H]1OC(=O)[C@H](C)[C@@H](O[C@H]2C[C@@](C)(OC)[C@@H](O)[C@H](C)O2)[C@H](C)[C@@H](O[C@@H]2O[C@H](C)C[C@H](N(C)C)[C@H]2O)[C@](C)(O)C[C@@H](C)CN(C)[C@H](C)[C@@H](O)[C@]1(C)O` [Azithromycin, (2R,3S,4R,5R,8R,10R,11R,12S,13S,14R)-11-[(2S,3R,4S,6R)-4-(dimethylamino)-3-hydroxy-6-methyl-tetrahydropyran-2-yl]oxy-2-ethyl-3,4,10-trihydroxy-13-[(2R,4R,5S,6S)-5-hydroxy-4-methoxy-4,6-dimethyl-tetrahydropyran-2-yl]oxy-3,5,6,8,10,12,14-heptamethyl-1-oxa-6-azacyclopentadecan-15-one], the MIC (Mycobacterium avium; Mycobacterium avium S1002170205) is listed as 16 µg/mL (≈ 21.4 µM), the MIC (Mycobacterium avium; Mycobacterium avium S1003050114) is listed as 32 µg/mL (≈ 42.7 µM) and the “effect on transepithelial resistance (TER) and cellular processing of tight junctions” value [1] is listed as “increasing transepithelial resistance”. For the same compound, the solubility at 60 min [2] was 0.26 µM (≈ 0.195 µg/mL), the “HSA level - absorbance at 600 nm” value ([3]; HSA in BAL by ELISA, mice, 10 mg/kg intravenous, 200 ppm SO2 for 60 minutes) was 0.346 ± 0.031 and the “leakage of HSA into the lung following SO2 insult” value ([3]; compared with control, FIG. 1) was “reduced compared with the control; also recorded: reduced compared with a control”. The “HSA level - absorbance at 600 nm relative to control” value ([3]; relative to PBS control, mice, 10 mg/kg intravenous, 200 ppm SO2 for 60 minutes) was 0.593 ± 0.053, the MBC [4] was 2 µg/mL (≈ 2.67 µM) and the MIC [4] was 1 µg/mL (≈ 1.34 µM). It also gave an MBC [5] of 8 µg/mL (≈ 10.7 µM), an MIC [5] of 2 µg/mL (≈ 2.67 µM) and an MIC ([6]; Mycobacterium intracellulare S1005200118) of 32 µg/mL (≈ 42.7 µM). For the same compound, the MIC ([6]; Mycobacterium intracellulare S1305150028) was 4 µg/mL (≈ 5.34 µM).
